Results as given in ChEMBL document CHEMBL1145900, “Histone deacetylase inhibitors” (J Med Chem, 2003).
Values after ≈ are worked out from the molar mass of the structure shown.

Assays:
Histone deacetylase 2 = Histone deacetylase 2 (Homo sapiens, UniProt Q92769); assay: Inhibitory concentration against human Histone deacetylase 2
[1] = biological target: T1, Protein deacetylase HDAC6 (Homo sapiens, UniProt Q9UBN7); assay: Inhibitory concentration against human Histone deacetylase 6
T1 sequence (Q9UBN7 whole entry): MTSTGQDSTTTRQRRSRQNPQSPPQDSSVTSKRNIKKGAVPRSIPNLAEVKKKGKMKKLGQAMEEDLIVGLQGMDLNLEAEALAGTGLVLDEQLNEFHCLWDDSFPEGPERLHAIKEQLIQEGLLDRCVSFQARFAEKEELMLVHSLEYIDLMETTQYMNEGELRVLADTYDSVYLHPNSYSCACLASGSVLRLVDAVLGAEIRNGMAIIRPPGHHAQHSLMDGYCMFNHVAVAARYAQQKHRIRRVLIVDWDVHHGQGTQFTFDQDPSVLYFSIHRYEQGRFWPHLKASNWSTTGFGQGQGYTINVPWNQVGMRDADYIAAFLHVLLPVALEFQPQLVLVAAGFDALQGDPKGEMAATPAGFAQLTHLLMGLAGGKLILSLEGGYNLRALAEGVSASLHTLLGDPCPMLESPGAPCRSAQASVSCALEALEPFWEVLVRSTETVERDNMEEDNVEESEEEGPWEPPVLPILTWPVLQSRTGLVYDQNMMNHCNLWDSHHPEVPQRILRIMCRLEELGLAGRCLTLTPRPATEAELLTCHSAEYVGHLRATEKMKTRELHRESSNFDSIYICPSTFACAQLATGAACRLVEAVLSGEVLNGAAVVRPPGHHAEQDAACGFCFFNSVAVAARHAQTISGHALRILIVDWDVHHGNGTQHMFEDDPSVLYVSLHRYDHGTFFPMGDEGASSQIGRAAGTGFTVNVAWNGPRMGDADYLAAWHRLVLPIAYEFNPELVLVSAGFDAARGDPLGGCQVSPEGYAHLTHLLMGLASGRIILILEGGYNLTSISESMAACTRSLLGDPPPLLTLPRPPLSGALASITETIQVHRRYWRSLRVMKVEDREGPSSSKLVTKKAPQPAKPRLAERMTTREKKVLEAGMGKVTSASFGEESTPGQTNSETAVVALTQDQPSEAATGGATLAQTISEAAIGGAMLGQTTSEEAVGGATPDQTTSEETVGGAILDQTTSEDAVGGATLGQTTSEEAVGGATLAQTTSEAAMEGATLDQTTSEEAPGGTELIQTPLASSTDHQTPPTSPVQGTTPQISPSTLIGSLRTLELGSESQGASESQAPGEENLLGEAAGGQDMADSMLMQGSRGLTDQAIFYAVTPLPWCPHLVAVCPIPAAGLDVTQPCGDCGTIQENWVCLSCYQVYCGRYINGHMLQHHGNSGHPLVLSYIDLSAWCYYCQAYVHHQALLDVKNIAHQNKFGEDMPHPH

Histone deacetylase 4 = Histone deacetylase 4 (Homo sapiens, UniProt P56524)
Description: Inhibitory concentration against human Histone deacetylase 4

Histone deacetylase 1 [2] = biological target: Histone deacetylase 1 (Homo sapiens, UniProt Q13547, C151S); assay: Inhibitory concentration against human Histone deacetylase 1 (C151S)
Histone deacetylase 1 [3] = biological target: Histone deacetylase 1 (Homo sapiens, UniProt Q13547); assay: Inhibitory concentration against human Histone deacetylase 1
[4] = biological target: T2, Histone deacetylase (Homo sapiens) (UniProt Q13547+O15379+Q9UBN7+Q92769+Q9UQL6+Q8WUI4+Q9BY41+Q96DB2+P56524+Q9UKV0+Q969S8); assay: Percent inhibition against isolated Histone deacetylase enzyme at 30 uM; format: protein assay
[5] = Inhibitory concentration against mixed human Histone deacetylase 1, Histone deacetylase 2 and Histone deacetylase 3
HCT-116 = assay: Inhibitory concentration against HCT116 cells proliferation; format: functional, cell-based; conditions: Homo sapiens
Histone deacetylase = format: protein assay, Homo sapiens
Description: Inhibitory concentration against histone deacetylase

[6] = biological target: T2, Histone deacetylase (Homo sapiens); assay: Inhibitory concentration against human Histone deacetylase; format: protein assay; conditions: concentration not given here
Histone deacetylase HD2 = biological target: T3, Histone deacetylase HD2 (Zea mays, UniProt Q94F81); assay: Inhibitory concentration against maize Histone deacetylase 2
T3 sequence (Q94F81 whole entry): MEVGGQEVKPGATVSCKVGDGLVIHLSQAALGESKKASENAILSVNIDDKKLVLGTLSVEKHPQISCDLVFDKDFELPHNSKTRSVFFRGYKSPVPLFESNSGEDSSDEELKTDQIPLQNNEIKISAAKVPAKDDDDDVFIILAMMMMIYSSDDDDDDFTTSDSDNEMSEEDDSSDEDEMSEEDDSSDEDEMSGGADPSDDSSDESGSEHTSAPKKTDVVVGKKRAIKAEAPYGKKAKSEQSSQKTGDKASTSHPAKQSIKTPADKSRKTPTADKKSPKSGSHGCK

HT-29 = assay: In vitro inhibitory concentration against HT-29 tumor cell proliferation; format: functional, cell-based; conditions: Homo sapiens
Jurkat = assay: In vitro inhibitory concentration against human Jurkat cell proliferation; format: functional, cell-based

Chain of Histone deacetylase 2 (Q92769 whole entry): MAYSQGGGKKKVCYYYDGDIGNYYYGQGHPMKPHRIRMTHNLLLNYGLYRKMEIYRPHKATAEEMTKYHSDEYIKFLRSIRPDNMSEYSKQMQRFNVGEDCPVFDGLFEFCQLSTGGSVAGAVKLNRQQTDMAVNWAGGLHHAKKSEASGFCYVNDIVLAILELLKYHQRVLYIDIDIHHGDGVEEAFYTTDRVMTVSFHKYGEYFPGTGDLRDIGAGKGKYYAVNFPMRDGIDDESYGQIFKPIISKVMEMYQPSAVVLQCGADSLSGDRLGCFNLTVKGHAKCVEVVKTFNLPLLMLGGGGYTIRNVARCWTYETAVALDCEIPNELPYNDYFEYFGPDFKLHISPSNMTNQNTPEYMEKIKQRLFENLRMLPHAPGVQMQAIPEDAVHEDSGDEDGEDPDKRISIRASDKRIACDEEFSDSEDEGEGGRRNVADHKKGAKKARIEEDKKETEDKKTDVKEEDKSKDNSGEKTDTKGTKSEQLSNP
Chain of Histone deacetylase 1 (Homo sapiens, UniProt Q13547, C151S) (Q13547 whole entry C151S): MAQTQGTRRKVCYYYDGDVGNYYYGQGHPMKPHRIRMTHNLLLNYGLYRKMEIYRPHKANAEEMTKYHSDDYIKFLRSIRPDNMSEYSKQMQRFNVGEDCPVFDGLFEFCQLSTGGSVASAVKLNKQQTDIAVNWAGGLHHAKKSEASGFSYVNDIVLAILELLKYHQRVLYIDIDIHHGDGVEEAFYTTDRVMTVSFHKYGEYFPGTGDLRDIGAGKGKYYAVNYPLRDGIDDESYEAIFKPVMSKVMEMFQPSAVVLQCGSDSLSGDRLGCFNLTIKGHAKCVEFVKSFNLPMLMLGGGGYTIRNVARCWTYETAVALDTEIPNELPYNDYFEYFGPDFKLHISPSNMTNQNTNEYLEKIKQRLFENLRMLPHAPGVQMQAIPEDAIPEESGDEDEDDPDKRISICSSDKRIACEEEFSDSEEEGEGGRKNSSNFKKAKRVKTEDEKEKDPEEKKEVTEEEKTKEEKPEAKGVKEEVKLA
Chain of Histone deacetylase 4 (P56524 whole entry): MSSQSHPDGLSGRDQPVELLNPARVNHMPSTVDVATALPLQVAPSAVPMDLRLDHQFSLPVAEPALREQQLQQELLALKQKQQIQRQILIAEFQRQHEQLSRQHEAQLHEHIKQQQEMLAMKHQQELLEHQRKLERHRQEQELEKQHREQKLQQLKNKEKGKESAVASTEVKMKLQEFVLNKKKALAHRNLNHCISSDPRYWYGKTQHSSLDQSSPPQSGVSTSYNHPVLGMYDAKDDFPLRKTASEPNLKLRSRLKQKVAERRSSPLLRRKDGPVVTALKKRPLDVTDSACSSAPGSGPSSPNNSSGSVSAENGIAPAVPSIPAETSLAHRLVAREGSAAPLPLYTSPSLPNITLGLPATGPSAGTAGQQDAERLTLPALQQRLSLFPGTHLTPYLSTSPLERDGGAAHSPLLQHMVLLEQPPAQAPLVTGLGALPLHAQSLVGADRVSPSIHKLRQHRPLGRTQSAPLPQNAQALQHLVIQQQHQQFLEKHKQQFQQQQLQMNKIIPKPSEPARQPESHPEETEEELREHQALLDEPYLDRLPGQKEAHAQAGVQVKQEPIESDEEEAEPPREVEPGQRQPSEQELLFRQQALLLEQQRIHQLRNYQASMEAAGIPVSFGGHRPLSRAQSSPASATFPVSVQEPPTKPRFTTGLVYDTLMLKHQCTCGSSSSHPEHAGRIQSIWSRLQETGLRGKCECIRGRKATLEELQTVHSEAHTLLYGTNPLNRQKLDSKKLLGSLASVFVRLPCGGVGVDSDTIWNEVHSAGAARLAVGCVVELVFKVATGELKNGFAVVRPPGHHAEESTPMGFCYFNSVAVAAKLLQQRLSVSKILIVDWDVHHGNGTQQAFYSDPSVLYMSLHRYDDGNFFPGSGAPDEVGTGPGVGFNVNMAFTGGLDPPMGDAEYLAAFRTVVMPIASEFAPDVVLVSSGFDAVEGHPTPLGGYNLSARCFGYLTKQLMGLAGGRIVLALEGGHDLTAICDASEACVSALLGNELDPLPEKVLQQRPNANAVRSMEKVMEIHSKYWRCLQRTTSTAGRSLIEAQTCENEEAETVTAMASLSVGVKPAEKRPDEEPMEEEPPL
Chain of Histone deacetylase 1 (Homo sapiens, UniProt Q13547) (Q13547 whole entry): as the sequence (Q13547 whole entry C151S) above, with S151C counted along it

**Q.** Which results are given for `C/C=C1\NC(=O)[C@@H](CS)NC(=O)[C@@H](C(C)C)NC(=O)C[C@@H](/C=C/CCS)OC(=O)[C@H](C(C)C)NC1=O` [FR-135313]?
**A.** IC50 (Histone deacetylase 2): 3.9 nM; IC50 [1]: 790 nM; IC50 (Histone deacetylase 4): 25 nM

**Q.** For `C/C=C1\NC(=O)[C@@H](CSC)NC(=O)[C@@H](C(C)C)CC(=O)C[C@@H](/C=C/CCSC)OC(=O)[C@H](C(C)C)NC1=O`, which IC50 (Histone deacetylase 1 [2]) is on record?
**A.** The IC50 was greater than 100000 nM.

**Q.** And the IC50 (Histone deacetylase 2)?
**A.** Its IC50 is 3300 nM.

**Q.** And the IC50 [1]?
**A.** Its IC50 is greater than 100000 nM.

**Q.** And the IC50 (Histone deacetylase 1 [3])?
**A.** The IC50 was 6300 nM.

**Q.** What about the IC50 (Histone deacetylase 4) of the same compound?
**A.** The IC50 was 110000 nM.

**Q.** Which inhibition [4] does the source give for `Cn1cc(C(=O)Cc2ccccc2)cc1/C=C/C#N` here?
**A.** Its inhibition is 0%.

**Q.** With `N#Cc1ccc(-c2ccc(OCCCCCCC(=O)NO)cc2)cc1` as the compound, how does the IC50 [5] read?
**A.** The IC50 was 9 nM.

**Q.** Which IC50 (Histone deacetylase 1 [2]) does the source give for `C/C=C1\NC(=O)[C@H]2CSSCC/C=C/[C@H](CC(=O)N[C@H](C(C)C)C(=O)N2)OC(=O)[C@H](C(C)C)NC1=O` [ROMIDEPSIN] here?
**A.** Its IC50 is 280 nM.

**Q.** Which results are given for `O=C(/C=C/c1ccc(CNCCCc2ccccc2)cc1)NO`?
**A.** IC50 (HCT-116): 64 nM; IC50 (Histone deacetylase): 64 nM

**Q.** Which inhibition [6] does the source give for `O=C(CCCCCCCOc1ccc(-c2ccccc2)cc1)C(F)(F)F` here?
**A.** The inhibition was 72%.

**Q.** With `CN(C)c1ccc(C(=O)Nc2ccc(CC(=O)NO)cc2)cc1` as the compound, how does the IC50 (Histone deacetylase HD2) read?
**A.** Its IC50 is greater than 40000 nM.

**Q.** Which results are given for `CCC(=O)CCCCC[C@@H]1NC(=O)[C@H]2CCCCN2C(=O)[C@H](Cc2ccccc2)NC(=O)[C@H](Cc2ccccc2)NC1=O`?
**A.** IC50 (HT-29): 0.158 µg/mL (≈ 0.268 µM); IC50 (Jurkat): 0.152 µg/mL (≈ 0.258 µM)
